# In patent US7960425B2, “Pyrazole compounds and thrombopoietin receptor activators” (Nissan Chemical Industries, Ltd., priority 2005, dated 2011):
# System: not listed separately
# Assay: Plasma concentration after oral administration to rats, determined by UT7/EPO-mpl proliferation bioassay
# Format: in vivo
# Conditions: rat, male Sprague-Dawley rats, 10 mg/kg, between 0.5 and 2 hours after administration, read-out: Cmax (maximum concentration in blood)
# Protocol: Each of the compounds of Synthetic Examples was suspended in a 99/1 liquid mixture of 0.5% methylcellulose/Polyoxyethylene Sorbitan Monooleate and orally administered to 7-week-old male Sprague-Dawley rats (Japan SLC, Inc.) at a dose of 10 mg/kg/10 mL through a stomach tube. Between 0.5 and 2 hours after the administration of the compounds, blood was periodically collected from the cervical vein with heparin as the anticoagulant. The blood was centrifuged at 3500 min^−1 for 10 minutes to obtain plasma. The plasma was added to the assay system used for assay of proliferation of a thrombopoietin-dependent cell line UT7/EPO-mpl in Assay Example 1 at final concentrations of from 0.1 to 3%, and the cell proliferation was assayed. The concentration of each compound in plasma was calculated from the cell proliferation in the presence of plasma by comparison with a standard curve of cell proliferation versus compound concentration prepared for each compound. The maximum concentration (Cmax) of each of the compounds of Synthetic Examples in blood between 0.5 and 2 hours after the oral administration to rats is shown in Table 3.
row,Structure (SMILES),Cmax [ng/mL]
1,"CCN(CC)C(=O)c1ccc(C(=O)NN=C(C)c2nn(C)c(-c3ccc(C(F)(F)F)cc3)c2O)s1.[K] [Synthetic Example 1, 5-{1-[4-hydroxy-1-methyl-5-(4-trifluoromethylphenyl)-1H-pyrazol-3-yl]ethylidenehydrazinocarbonyl}thiophene-2-carboxylic Acid Diethylamide Potassium Salt]",760
2,"CC(=NNC(=O)c1ccc(C(=O)NCc2ccccn2)s1)c1nn(C)c(-c2ccc(C(F)(F)F)cc2)c1O.[K] [Synthetic Example 2, 5-{1-[4-hydroxy-1-methyl-5-(4-trifluoromethylphenyl)-1H-pyrazol-3-yl]ethylidenehydrazinocarbonyl}thiophene-2-carboxylic Acid 2-picolylamide Potassium Salt]",1200

# System: Human bone marrow CD34+ cells
# Assay: Megakaryocyte colony stimulating activity (megakaryocyte colony forming method)
# Format: cell-based
# Conditions: 11 days, MegaCult-C, colonies of at least 8 stained megakaryocyte cells, average of at least 2 wells
# Protocol: The action of the compounds of Synthetic Examples 2 to 6 of the present invention and Reference Synthetic Examples 6 to 7 on the proliferation, differentiation and maturation of megakaryocyte cells was measured by the megakaryocyte colony forming method using human bone marrow cells. Human bone marrow CD34^+ cells (Cambrex Bio Science Walkersville) were incubated on 2-well chamber slide for 11 days in a CO2 incubator (5% Co2, 37° C.) using MegaCult™-C (StemCell Technologies) containing 0.1% (v/v) of the compounds of Synthetic Examples dissolved in dimethyl sulfoxide. After dehydration and fixation, the cells were stained with an anti-glycoprotein IIb/IIIa antibody in accordance with the instruction by the manufacturer. The colonies consisting of at least 8 stained megakaryocyte cells in each well were counted under a microscope. The megakaryocyte colony counts in at least 2 wells were averaged.
row,Structure (SMILES),Colony count at 1 μg/mL
1,"C/C(=N\NC(=O)c1ccc(C(=O)O)s1)c1nn(C)c(-c2ccc(C(C)(C)C)cc2)c1O [Reference Synthetic Ex. 6, reference compound]",1
2,"CC(=NNC(=O)c1ccc(C(=O)NCc2ccccn2)s1)c1nn(C)c(-c2ccc(C(F)(F)F)cc2)c1O.[K] [Synthetic Example 2, 5-{1-[4-hydroxy-1-methyl-5-(4-trifluoromethylphenyl)-1H-pyrazol-3-yl]ethylidenehydrazinocarbonyl}thiophene-2-carboxylic Acid 2-picolylamide Potassium Salt]",121
3,"CC(=NNC(=O)c1ccc(C(=O)NC(C)C)s1)c1nn(C)c(-c2ccc(C(F)(F)F)cc2)c1O [Synthetic Example 3, 5-{1-[4-hydroxy-1-methyl-5-(4-trifluoromethylphenyl)-1H-pyrazol-3-yl]ethylidenehydrazinocarbonyl}thiophene-2-carboxylic Acid 2-propylamide]",141
4,"CC(=NNC(=O)c1ccc(C(=O)NCc2ccncc2)s1)c1nn(C)c(-c2ccc(C(F)(F)F)cc2)c1O [Synthetic Example 4, 5-{1-[4-hydroxy-1-methyl-5-(4-trifluoromethylphenyl)-1H-pyrazol-3-yl]ethylidenehydrazinocarbonyl}thiophene-2-carboxylic Acid 4-picolyamide]",111
5,"COCCNC(=O)c1ccc(C(=O)NN=C(C)c2nn(C)c(-c3ccc(C(F)(F)F)cc3)c2O)s1 [Synthetic Example 5, 5-{1-[4-hydroxy-1-methyl-5-(4-trifluoromethylphenyl)-1H-pyrazol-3-yl]ethylidenehydrazinocarbonyl}thiophene-2-carboxylic Acid 2-methoxyethylamide]",335
6,"CC(=NNC(=O)c1ccc(C(=O)NCc2ccncc2)s1)c1nn(C)c(-c2ccc(Cl)c(Cl)c2)c1O [Synthetic Example 6, 5-{1-[5-(3,4-dichlorophenyl)-4-hydroxy-1-methyl-1H-pyrazol-3-yl]ethylidenehydrazinocarbonyl}thiophene-2-carboxylic Acid 4-picolylamide]",173
